Experimental data from ChEMBL document CHEMBL4699531, “Defining the Familial Fold of the Vicilin-Buried Peptide Family” (J Nat Prod, 2020).
The source made the active and inactive calls. The rule behind the calls is not given here. Bridge positions count the residues as written; N and C are the ends. Square brackets hold non-standard residues; d marks the D form. Peptide text beside a SMILES is read from it. pGlu = O=C1CC[C@@H](C(=O)O)N1

Tests used:
[1] = species: Bos taurus; test: Inhibition of bovine pancreas trypsin at 0.01 to 8 uM using N-alpha-benzoyl-L-arginine-pnitroanilide substrate preincubated for 15 mins followed by substrate addition and measured after 30 mins; format: tissue-based; settings: dose microM 0.01-8, time 45.0 min
[2] = Inhibition of bovine pancreas trypsin using N-alpha-benzoyl-L-arginine-pnitroanilide substrate preincubated for 15 mins followed by substrate addition and measured after 30 mins; format: tissue-based, Bos taurus

Structure (SMILES) | inhibition [1] | IC50 [2] [nM]
CC[C@H](C)[C@H](NC(=O)[C@H](CCC(N)=O)NC(=O)[C@H](CCCNC(=N)N)NC(=O)[C@H](CCCCN)NC(=O)[C@@H]1CCCN1)C(=O)N[C@@H](CCC(=O)O)C(=O)N[C@@H](CCCNC(=N)N)C(=O)N[C@H]1CSSC[C@@H](C(=O)N[C@@H](CCC(=O)O)C(=O)N[C@@H](CCC(=O)O)C(=O)N[C@@H](CCC(N)=O)C(=O)N[C@@H](CCC(=O)O)C(=O)N[C@@H](CCC(=O)O)C(=O)N[C@@H](CCCCN)C(=O)N[C@@H](CCCNC(=N)N)C(=O)NCC(=O)N[C@@H](CCC(N)=O)C(=O)NCC(=O)N[C@@H](CC(=O)O)C(=O)O)NC(=O)[C@H](CCC(N)=O)NC(=O)[C@H](CCCNC(=N)N)NC(=O)[C@H](C(C)C)NC(=O)[C@@H]2CSSC[C@H](NC(=O)[C@H](CCC(=O)O)NC(=O)[C@H](CCC(N)=O)NC(=O)[C@H](CCCCN)NC1=O)C(=O)N[C@@H](CCCNC(=N)N)C(=O)N[C@@H](CCC(=O)O)C(=O)N[C@@H](CO)C(=O)N[C@@H](CCCNC(=N)N)C(=O)N[C@@H](CCC(N)=O)C(=O)NCC(=O)N[C@@H](CCC(=O)O)C(=O)N[C@@H](CCC(N)=O)C(=O)N[C@@H](CCC(N)=O)C(=O)N[C@@H](CCC(=O)O)C(=O)N[C@@H](CCCNC(=N)N)C(=O)N[C@@H](CCC(N)=O)C(=O)N2 (H-PKRQIERCKQECRESRQGEQQERQCVRQCEEQEEKRGQGD-OH; disulfide 8-29, 12-25) | inactive | –
CSCC[C@@H]1NC(=O)[C@H](C(C)C)NC(=O)[C@H](CCCCN)NC(=O)[C@@H](NC(=O)[C@H](CCC(N)=O)NC(=O)[C@H](CCC(=O)O)NC(=O)[C@@H]2CCCN2C(=O)[C@H](CC(=O)O)NC(=O)[C@@H](NC(=O)[C@@H](N)CC(N)=O)[C@@H](C)O)CSSC[C@@H](C(=O)N[C@@H](CCC(=O)O)C(=O)N[C@@H](CCCCN)C(=O)N[C@@H](CCC(=O)O)C(=O)N[C@@H](Cc2c[nH]cn2)C(=O)N[C@@H](CC(=O)O)C(=O)O)NC(=O)[C@H](CCC(N)=O)NC(=O)[C@H](CC(=O)O)NC(=O)[C@H](CC(C)C)NC(=O)[C@@H]2CSSC[C@H](NC1=O)C(=O)N[C@@H](Cc1ccc(O)cc1)C(=O)N[C@@H](C)C(=O)N[C@@H](CCC(N)=O)C(=O)N[C@@H](CCCNC(=N)N)C(=O)N[C@@H](Cc1c[nH]cn1)C(=O)N[C@@H](CO)C(=O)N[C@@H](CO)C(=O)N1CCC[C@H]1C(=O)N[C@@H](CCC(=O)O)C(=O)N[C@@H](CC(C)C)C(=O)N[C@@H](CC(C)C)C(=O)N[C@@H](CCCNC(=N)N)C(=O)N[C@@H](CCCNC(=N)N)C(=O)N2 (H-NTDPEQCKVMCYAQRHSSPELLRRCLDQCEKEHD-OH; disulfide 7-29, 11-25) | – | 400
CC[C@H](C)[C@H](NC(=O)[C@H](CCC(=O)O)NC(=O)[C@@H](NC(=O)[C@H](CCC(=O)O)NC(=O)[C@H](CCCCN)NC(=O)[C@@H]1CCC(=O)N1)[C@@H](C)O)C(=O)N[C@H]1CSSC[C@@H](C(=O)N[C@@H](CCC(=O)O)C(=O)N[C@@H](CCC(=O)O)C(=O)N[C@@H](CCCNC(=N)N)C(=O)N[C@@H](CC(C)C)C(=O)N[C@@H](CCCNC(=N)N)C(=O)N[C@@H](CC(=O)O)C(=O)O)NC(=O)[C@H](CCC(=O)O)NC(=O)[C@H](CCC(N)=O)NC(=O)[C@H](CCC(N)=O)NC(=O)[C@@H]2CSSC[C@H](NC(=O)[C@H](Cc3c[nH]c4ccccc34)NC(=O)[C@H](CCC(N)=O)NC(=O)[C@H](CCCNC(=N)N)NC1=O)C(=O)N[C@@H](CCC(N)=O)C(=O)N[C@@H](C(C)C)C(=O)N[C@@H](CCSC)C(=O)N[C@@H](CCCCN)C(=O)N1CCC[C@H]1C(=O)N[C@@H](CCC(N)=O)C(=O)NCC(=O)NCC(=O)N[C@@H](CCC(=O)O)C(=O)N[C@@H](CCC(=O)O)C(=O)N[C@@H](CCC(N)=O)C(=O)N[C@@H](CCCNC(=N)N)C(=O)N[C@@H](CCCNC(=N)N)C(=O)N2 ([pGlu]KETEICRQWCQVMKPQGGEEQRRCQQECEERLRD-OH; disulfide 7-29, 11-25) | inactive | –
